Where a name gives a salt, the structure may show the parent alone. Read-outs that look alike come from different tables or passages of the source.
How the values were obtained:
[1] = system: adjuvant arthritis induced in rats by injection of a tubercle bacillus adjuvant; type: in vivo, male rats of the SD strain
[2] = Test for acute oral toxicity; set-up: species or system male mice of the ddY strain; conditions: mouse, in vivo, male ddY mice, 7 days observation, estimated
Experimental: Each of the three compounds used in Evaluation Tests 1 and 2 was dissolved or suspended in physiological saline and administered orally to a group of 5 male mice of the ddY strain. The LD50 value of the compound was estimated by observing these animals for 7 days after administration.

[3] = system: delayed hypersensitivity induced in mice by picryl chloride; assay: Augmentation test of delayed hypersensitivity (picryl chloride, ear thickness); type: in vivo, male mice of the ICR strain; conditions: mouse ICR, 50 mg per kg orally, simultaneously with sensitization; ear thickness before and 24 hours after challenge (7 days after sensitization); average of 16 measurements; * = P<0.05 vs control
Source text: L., and Ptak, W. "Contact and delayed hypersensitivity in the mouse I. Active sensitization and passive transfer," Immunology, 15, 405-416(1968)). In the following Evaluation Test 1, this experimental system was used to carry out an augmentation test of delayed hypersensitivity. Male mice of the ICR strain, weighing approximately 30 g, were used in groups of eight. These animals were sensitized by shaving the hair on the abdomen and applying thereto a 3% solution of picryl chloride in a 4:1 mixture of olive oil and acetone. Simultaneously with this sensitization, each of three compounds of the present invention was dissolved or suspended in physiological saline containing 0.2% carboxymethyl cellulose and administered orally to the animals in a dose of 50 mg per kg of body weight. A control group was treated solely with physiological saline containing 0.2% carboxymethyl cellulose. Seven days after sensitization, the animals were challenged by wrapping the tips of a forceps with pieces of felt, impregnating the felt with olive oil containing 1% picryl chloride, and pinching both ears of each animal. The thicknesses of the ears were measured before and 24 hours after the challenge, and the calculated present increase of ear thickness (the average of 16 measurements made of the ears of 8 animals) is shown in Table 1. […] The test results thus obtained were subjected to statistical analysis using the F.t test. The values marked with an asterisk (*) indicate that, when they were compared with the value of the control, the differences were significant at P<0.05.

[4] = rat SD, 5 mg per kg subcutaneously, nine times before and after adjuvant, left hind paw volume, * = P<0.05 vs control

## c1ccc([C@H]2CN3CCSC3=N2)cc1 [Levamisole hydrochloride, reference compound]
[1]; rat, in vivo, sc
  Percent inhibition of swelling as compared with control group (average of 16-20 days): 19.8%
[2]
  LD50 at 168 h: 200 to 300 mg/kg
[3]
  Percent increase of ear thickness: 31.2%

## CO/N=C(\C(=O)OC)c1csc(NC(=O)OCC(Cl)(Cl)Cl)n1 [drawing 8]
[3]
  Percent increase of ear thickness: 33.4%

## CCC(=O)Nc1nc(/C(=N/OC)C(=O)OC)cs1 [drawing 10]
[3]
  Percent increase of ear thickness: 35.2%

## CO/N=C(\C(=O)OC)c1csc(NC(=O)OCC(Cl)(Cl)Cl)n1 [drawing 11]
[1]; [4]
  Percent inhibition of swelling as compared with control group (average of 16-20 days): 39.5%

## CCC(=O)Nc1nc(/C(=N/OC)C(=O)OC)cs1 [drawing 13]
[1]; [4]
  Percent inhibition of swelling as compared with control group (average of 16-20 days): 22.3%
